Test results: publication PMC8398766, “Do Small Molecules Activate the TrkB Receptor in the Same Manner as BDNF? Limitations of Published TrkB Low Molecular Agonists and Screening for Novel TrkB Orthosteric Agonists” (Pharmaceuticals, 2021)
≈ marks a conversion by molar mass, not a printed value. Where two headings read alike, the source gives them in different places.

Tests used:
[1] = target: extracellular domain of the human TrkB receptor (exTrkB), residues 1-430 (human) (UniProt Q16620); assay: MST; exTrkB labelled with RED-NHS, 20 nM; ligand titrated at 16 concentration points; MST buffer (50 mM Tris pH 8, 150 mM NaCl, 10 mM MgCl2, 0.1% Tween20); 5 min at 25 °C before loading; Kd binding model
Sequence of extracellular domain of the human TrkB receptor (exTrkB), residues 1-430 (human) (Q16620 32-430): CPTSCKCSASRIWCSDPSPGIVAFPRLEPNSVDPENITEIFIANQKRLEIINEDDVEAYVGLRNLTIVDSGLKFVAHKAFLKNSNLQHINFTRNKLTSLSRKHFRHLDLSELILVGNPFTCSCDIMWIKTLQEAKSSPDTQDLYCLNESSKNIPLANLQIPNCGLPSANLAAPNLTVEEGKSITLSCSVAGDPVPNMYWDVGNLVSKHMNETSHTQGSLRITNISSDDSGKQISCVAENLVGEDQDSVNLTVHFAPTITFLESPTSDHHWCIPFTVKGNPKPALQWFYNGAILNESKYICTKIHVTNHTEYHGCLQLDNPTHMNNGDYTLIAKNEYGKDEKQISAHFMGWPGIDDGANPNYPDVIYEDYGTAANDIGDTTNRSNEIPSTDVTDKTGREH

[2] = target: extracellular domain of the human TrkB receptor (exTrkB), residues 1-430 (human) (UniProt Q16620)
exTrkB = target: T1, exTrkB (Homo sapiens, UniProt Q16620); assay: MST binding affinity (Kd) determination
T1 construct: human TrkB receptor (exTrkB), residues 1−430, was cloned into the pCMV2 expression vector; made in house; host or cells: ExpiCHO-S cells
T1 sequence (Q16620 32-430): as above
Procedure: The gene encoding the extracellular domain of the human TrkB receptor (exTrkB), residues 1−430, was cloned into the pCMV2 expression vector. Protein expression was performed in suspension-cultivated mammalian ExpiCHO-S cells using the ExpiFectamine (Thermo Scientific, Thermo Fisher Scientific, Waltham, MA, USA) transfection reagent. The secreted protein was purified using a four-step protocol. Clarified culture medium was precipitated with ammonium sulfate added to a final concentration of 1.5 M and centrifuged (235,000× g, 60 min at 4 °C). The supernatant after centrifugation was applied on a HiTrap Phenyl column (GE Healthcare, Chicago, IL, USA) equilibrated with buffer A (25 mM Tris, 1 mM DTT; pH 7.5) with 1.5 M ammonium sulfate. Bound proteins were eluted with a linear gradient of buffer A. The eluted proteins were dialyzed overnight in buffer A and loaded on a CaptoQ ImpRes column (GE Healthcare) equilibrated with buffer A with 50 mM NaCl. The bound proteins were eluted with a linear gradient of buffer A with 1 M NaCl. The fractions containing exTrkB protein were pooled, and MnCl2 and CaCl2 (1mM final concentration each) were added. The sample was purified on a HiTrap Con A 4B column (GE Healthcare) equilibrated with buffer B (25 mM Tris, 0.5 M NaCl, 1 mM MnCl2, 1 mM CaCl2; pH 7.5) and eluted with buffer C (25 mM Tris, 0.1 M NaCl, 0.4 M α-D-glucopyranoside; pH 6.5). To improve the protein recovery, buffer C flow was paused nine times during elution. The eluted fractions were concentrated and purified by size-exclusion chromatography on a HiLoad 16/600 Superdex 200 column (GE Healthcare) in buffer A with 0.5 M NaCl. The protein samples were concentrated to 1 mg/mL, and buffer was exchanged (PBS; pH 7.4). Samples were frozen in liquid nitrogen and stored at −80 °C. The protein purity was estimated by SDS–PAGE followed by Coomassie Brilliant Blue staining. The protein concentration was determined from the absorption at 280 nm using an UV NanoDrop 1000 spectrophotometer (Thermo Scientific).
The exTrkB was labeled with a Monolith Protein Labeling Kit RED-NHS 2nd Generation (NanoTemper Technologies GmbH, Munich, Germany) according to the manufacturer’s protocol. The labelling efficiency was always determined spectrophotometrically with NanoPhotometer® NP80 (Impel) in line with the manufacturer’s recommendations. Labelled exTrkB protein was aliquoted and stored at −80 °C to avoid repeated freeze–thaw cycles. Before analysis, the exTrkB protein was thawed on ice and diluted with MST buffer (50 mM Tris pH = 8; 150 mM NaCl; 10 mM MgCl2; 0.1% Tween20) to the desired concentration.
For primary screening (single-point MST experiments for signal amplitude determination), each of the 987 screened compounds were diluted in MST buffer + 0.1% Tween20 to a final concentration of 0.5 mM. The tested compounds were mixed with exTrkB solution (the final concentration of exTrkB was 20 nM) and centrifuged (10,000× g, 4 min at 4 °C) to eliminate protein and compound aggregates. Before loading to capillaries (Monolith NT.115 Capillaries, NanoTemper Technologies GmbH), the samples were incubated for 5 min at 25 °C and then placed into the MST apparatus (Monolith, NanoTemper Technologies GmbH). The experiments were performed using nano-blue excitation, LED light adjusted to 20% excitation power, and MST power set to medium, and the fluorescence signal during thermophoresis was detected after 30 s. Single-point MST experiments were performed by the determination of the amplitude signal between the unbound and bound state between the molecule and exTrkB, which was analyzed using the MO.Control Software version 1.6 (NanoTemper Technologies GmbH). A reference sample containing only exTrkB and the equivalent DMSO concentration (v/v) was included in each individual MST experiment. At least three technical replicates were prepared for each of the tested compounds. A binding affinity study was performed for 113 of the selected compounds at 16 concentration points. […]

[3] = Chemical stability pH 7.4; assay type: physicochemical; conditions: pH = 7.4, 4 h
[4] = Metabolic stability in mouse liver microsomes; conditions: for Clint MLM: 1 μM, phase I; for Metabolic stability in MLM (classification): compared with verapamil
Caco-2 monolayer = assay: Caco-2 passive permeability; conditions: for Papp,AB: Caco-2, apical to basal; for Papp,AB / Papp,BA: 2 h; for Papp,BA: Caco-2, basal to apical
TrkB receptor = target: T2, TrkB receptor (Rattus norvegicus, UniProt Q63604); assay: ELFI TrkB phosphorylation, orthosteric agonist mode, SN56 T48 cell line; assay type: cell-based; conditions: 0.125–100 μM, 15 min
T2 construct: host or cells: SN56 T48 cell line
T2 sequence (Q63604 32-821): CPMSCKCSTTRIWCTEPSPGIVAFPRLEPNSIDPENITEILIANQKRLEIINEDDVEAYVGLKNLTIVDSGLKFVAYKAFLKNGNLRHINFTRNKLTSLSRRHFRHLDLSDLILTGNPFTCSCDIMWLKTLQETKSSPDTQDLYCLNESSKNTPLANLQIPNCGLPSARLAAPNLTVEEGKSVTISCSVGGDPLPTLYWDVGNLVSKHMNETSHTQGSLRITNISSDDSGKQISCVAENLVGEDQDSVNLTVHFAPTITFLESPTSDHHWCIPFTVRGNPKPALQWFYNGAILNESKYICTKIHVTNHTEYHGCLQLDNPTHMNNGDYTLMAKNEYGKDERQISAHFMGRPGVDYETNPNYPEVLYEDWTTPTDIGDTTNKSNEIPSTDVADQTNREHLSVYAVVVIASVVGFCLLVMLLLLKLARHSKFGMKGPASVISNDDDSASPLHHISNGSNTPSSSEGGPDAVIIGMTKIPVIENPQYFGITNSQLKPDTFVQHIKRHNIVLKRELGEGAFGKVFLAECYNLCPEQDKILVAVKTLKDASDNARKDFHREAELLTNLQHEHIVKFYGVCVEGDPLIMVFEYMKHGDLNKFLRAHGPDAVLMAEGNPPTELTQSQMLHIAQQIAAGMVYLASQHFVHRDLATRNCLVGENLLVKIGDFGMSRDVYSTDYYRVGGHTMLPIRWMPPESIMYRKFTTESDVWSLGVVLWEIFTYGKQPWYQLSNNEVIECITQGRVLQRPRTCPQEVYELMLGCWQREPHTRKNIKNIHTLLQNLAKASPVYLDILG
Procedure: The SN56 T48 cell line with stable overexpression of the TrkB receptor was purchased from Emory University (Atlanta, GA, USA) and cultivated according to the protocol described in Jang et al., 2010 [12]. The cell lines were cultivated with the following reagents: DMEM High Glucose, fetal bovine serum (FBS), Penicillin-Streptomycin Solution 100×, and Trypsin-EDTA 1×; all were purchased from Biowest, and G418 was from ThermoFisher Scientific. For the ELFI experiments, cells were seeded (8000/well) on a PDL-treated 96-well plate (BioCoat™, Corning Inc., Corning, NY, USA) and 6-well plate (400,000/well) for lysate collection and immunoblot analysis.
In the orthosteric agonist mode experiments, starved cells (5 h) were treated with compounds (0.125–100 μM; volume, 100 μL/well) or BDNF (0.01–10 nM; volume, 100 μL/well) dissolved in culture medium. In the allosteric modulation mode experiments, starved cells (5 h) were treated with final compound concentrations of 3, 10, and 30 μM; volume, 50 μL/well) in the presence of a rising concentration of BDNF (final concentration in well, 0.15–5 nM; volume, 50 μL/well). Corresponding treatment with DMSO (v/v) was performed for a control. Cells were treated for 15 min in both the orthosteric and allosteric modulation mode experiments.
The analysis of TrkB receptor activation was performed using the ELFI method adapted from Boltayev et al. (2017) with some modifications. After compound treatment, experiments were stopped by fixing cells with 10% buffered formalin (Kolchem, Lodz, Poland) for 20 min (volume, 100 μL/well). Afterwards, cells were permeabilized with washing buffer (TBS+ 0.1% Tween20) for 15 min, and endogenous peroxidases were quenched by 20 min of incubation with 1% H2O2 dissolved in TBS (each solution: volume, 100 μL/well). Epitopes were blocked with 10% BSA (Biowest) dissolved in washing buffer for 2 h (volume, 100 μL/well) and incubated with anti-pTrkB (Tyr707) primary antibody (Cell Signaling Technology, Danvers, MA, USA) diluted in washing buffer (1:500; overnight at 4 °C; volume, 100 μL/well). After repeated washing, cells were incubated with HRP-linked anti-rabbit antibody (Cell Signaling Technology) for 2 h (1:1000; RT; volume, 100 μL/well) and washed. The cells were then incubated with 100 μL of ImmunoCruz™ Western Blotting Luminol (Santa Cruz Biotechnology, Dallas, TX, USA) for 1 min in the dark, and the signals were measured using a microplate luminometer (VICTOR Light 1420-060, PerkinElmer®, Waltham, MA, USA). For non-specific binding, cells were treated, with the exception of primary antibody.

[5] = Metabolic stability in human liver microsomes; conditions: for Clint HLM: 1 μM, phase I; for Metabolic stability in HLM (classification): compared with verapamil
PAMPA = conditions: for PAMPA: 10 μM, 4 h
[6] = Kinetic solubility (shake-flask); conditions: pH 7.4, 4 h, 25 °C
physchem = conditions: 25 °C, pH 7.4, aqueous buffer, kinetic from dmso stock
[7] = Caco-2 passive permeability; conditions: human, Caco-2, with 5 μM elacridar and 20 μM cyclosporine A
[8] = pH 7.4

Row | Compound | Binding to the exTrkB receptor (exTrkB) | Chemical Stability [% of Degradation] [3] | Clint MLM [4] | Metabolic stability in MLM (classification) [4] | Papp,AB (Caco-2 monolayer) | Papp,BA (Caco-2 monolayer) | Orthosteric activity (induction of TrkB phosphorylation) (TrkB receptor) | Clint HLM [5] | Metabolic stability in HLM (classification) [5] | PAMPA (PAMPA) | Kinetic Solubility [6] | also measured
1 | Brain-derived neurotrophic factor (ligand) | – | – | – | – | – | – | – | – | – | – | – | Kd [1]: 0.093 µM; EC50 of TrkB phosphorylation (Y706) by enzyme-linked fixed-cell immunoassay (ELFI) in SN56 T48 cells overexpressing TrkB; BDNF 0.01-10 nM, 15 min [2]: 0.004 µM
2 | O=C(NCCO)c1cc(C(=O)NCCO)cc(C(=O)NCCO)c1 [LM22-A4] | not observed | Stable | – | very good metabolic stability | – | 0.12 10^−6·cm/s | did not observe any orthosteric activity | 3.7 μL·min^−1·mgprotein^−1 | very good metabolic stability | 0.01 10^−6·cm/s | 397 µM | –
3 | CC(C)CCNc1ncccc1C(=O)N1CCN(Cc2ccccc2)CC1 [NSI-189] | not observed | 0.65% | 1316.7 μL·min^−1·mgprotein^−1 | highly unstable | 28.23 10^−6·cm/s | 13.22 10^−6·cm/s | did not observe any orthosteric activity | 466.6 μL·min^−1·mgprotein^−1 | highly unstable | 8.91 10^−6·cm/s | – | Permeability in Caco-2 system (good permeability) (Caco-2 monolayer): > 10^−6 cm/s; Permeability in PAMPA assay (good permeability) (PAMPA): > 10^−6 cm/s; Kinetic Solubility [8]: 500 µM

Continued, in another order:

Row | Binding to the exTrkB receptor (exTrkB) | Chemical Stability [% of Degradation] [3] | Clint MLM [4] | Metabolic stability in MLM (classification) [4] | Papp,AB (Caco-2 monolayer) | Papp,BA (Caco-2 monolayer) | Orthosteric activity (induction of TrkB phosphorylation) (TrkB receptor) | Clint HLM [5] | Metabolic stability in HLM (classification) [5] | PAMPA (PAMPA) | Kinetic Solubility [6] | Compound | also measured
4 | not observed | Stable | 1.5 μL·min^−1·mgprotein^−1 | very good metabolic stability | 8.86 10^−6·cm/s | 8.00 10^−6·cm/s | did not observe any orthosteric activity | 0.3 μL·min^−1·mgprotein^−1 | very good metabolic stability | <0.01 10^−6·cm/s | 404 µM | CC(=O)NCCc1c[nH]c2ccc(O)cc12 [NAS, N-acetylserotonin] | –
5 | not observed | Stable | – | moderate degradation rate | – | – | did not observe any orthosteric activity | – | moderate degradation rate | – | – | O=c1cc(-c2cccc(O)c2)oc2c(O)c(O)ccc12 [7,8,3′-THF, 7,8,3′-trihydroxyflavone] | solubility kinetic at 4 h (physchem): 168 µM (≈ 45.4 µg/mL); microsomal CLint at 1 μM ([4]; mouse, liver microsomes): 26.6 µL/min/mg; Papp A→B at 2 h [7]: 3 ×10⁻⁶ cm/s; Papp B→A at 2 h [7]: 11.1 ×10⁻⁶ cm/s; microsomal CLint at 1 μM ([5]; human, liver microsomes): 49.4 µL/min/mg; Papp at 4 h, 10 μM (PAMPA; PAMPA, pH 7.4): 1.1 ×10⁻⁶ cm/s
